In ChEMBL document CHEMBL3769359, “Design of Selective PAK1 Inhibitor G-5555: Improving Properties by Employing an Unorthodox Low-pK a Polar Moiety” (ACS Med Chem Lett, 2015):

Assays:
[1] = Hepatic clearance in human liver microsomes after 1 hr by LC-MS/MS analysis; format: ADME
[2] = Half life in CD1 mouse blood at 2 mg/kg, iv after 8 hrs by LC/MS/MS; format: ADME, organism-based; conditions: whole blood
[3] = Clearance in CD1 mouse blood at 2 mg/kg, iv after 8 hrs by LC/MS/MS; format: ADME, organism-based; conditions: whole blood
[4] = Oral bioavailability in CD1 mouse blood at 25 mg/kg after 8 hrs by LC/MS/MS; format: ADME, organism-based; conditions: whole blood
[5] = AUC (0 to 8 hrs) in CD1 mouse blood at 25 mg/kg, po after 8 hrs by LC/MS/MS; format: ADME, organism-based; parameters: time < 8 hr, dose 25 mg/kg, route oral; conditions: whole blood
[6] = Oral bioavailability in cynomolgus monkey; format: ADME, organism-based, Macaca fascicularis; conditions: in vivo
[7] = Plasma clearance in cynomolgus monkey; format: ADME, organism-based, Macaca fascicularis

CLhep predicted [1] [mL/min/kg]	Compound	further results
9.6	CCNc1ncc2cc(-c3ccc(-c4cncc(C)n4)cc3Cl)c(=O)n(C[C@H]3OC[C@H](N)CO3)c2n1	
11.6	CNc1ncc2cc(-c3ccc(-c4cccc(C)n4)cc3Cl)c(=O)n(C[C@H]3OC[C@H](N)CO3)c2n1	half-life [2]: 53 min; clearance [3]: 24.2 mL/min/kg; bioavailability [4]: 80%; AUC(0-t) at 8 h [5]: 30 µM·h; bioavailability [6]: 72%; clearance [7]: 3.4 mL/min/kg
10.7	CNc1ncc2cc(-c3ccc(-c4cncc(C)n4)cc3Cl)c(=O)n(C[C@H]3CNCCO3)c2n1	

Second part, the compound before the results:

Compound	CLhep predicted [1] [mL/min/kg]	further results
CNc1ncc2cc(-c3ccc(-c4cccc(C)n4)cc3Cl)c(=O)n(C[C@H]3OC[C@H](NC)CO3)c2n1	13.8	
CNc1ncc2cc(-c3ccc(-c4cccc(C)n4)cc3Cl)c(=O)n(C[C@@H]3CCNCC3(F)F)c2n1	17.8	
CCNc1ncc2cc(-c3ccc(-c4cncc(C)n4)cc3Cl)c(=O)n(CC3CCNC(=O)C3)c2n1 (centres undefined)	12.5	
CNc1ncc2cc(-c3ccc(-c4cccc(C)n4)cc3Cl)c(=O)n(CC3COC4(CNC4)OC3)c2n1	11.6	
CCNc1ncc2cc(-c3ccc(-c4cncc(C)n4)cc3Cl)c(=O)n(CCCO)c2n1	14.7	
